Laboratory results taken from US11865176B2, “Compositions and methods of modulating anti-tumor immunity” (Dana-Farber Cancer Institute, Inc., priority 2016, dated 2024).

Key:
[1] = system: primary human CD4+ T cells; assay: IL2 ELISA, primary human CD4+ T cells; assay type: cell-based; settings: α-CD3/CD28 and recombinant PD-L1 or control IgG; 100 nM (FIG. 1C)
Experimental: PD-1-overexpressing Jurkat cells as previously published (23) were stimulated with Dynabeads conjugated to α-CD3 (UCHT1), α-CD28 (28.2), and α-PD-1 (clone EH12 from Gordon Freeman) or control IgG at a 4:1 bead:cell ratio in the presence of 1 μM CDK4/6 inhibitor for 18 h. For primary human T cells, normal donor human blood was obtained through DFCI IRB Protocol 04-430. PBMC were isolated using a Ficoll-Paque density gradient, and purified populations of CD4+ T lymphocytes were obtained through a negative magnetic selection kit according to manufacturer's instructions (Miltenyi). […] IL-2 levels in the supernatant were analyzed by AlphaLISA (Perkin Elmers) according to the manufacturer's protocol.

[2] = system: patient-derived organotypic tumor spheroids (PDOTS); assay: Cytokine profiling of patient-derived organotypic tumor spheroids (PDOTS) in 3D microfluidic culture; assay type: cell-based, human; settings: 100 nM; day 1 and day 3
Experimental: Experiments were performed as described (28). Briefly, fresh tumor specimens from human patients were received in media (DMEM) on ice and minced in 10 cm dishes (on ice) in a sterile field. S2 fractions (40-100 μm) were used for ex vivo culture as previously described (28). An aliquot of the S2 fraction was pelleted and re-suspended in type I rat-tail collagen (Corning, Corning, NY) and the spheroid-collagen mixture was then injected into the center gel region of the 3D microfluidic culture device. After 30 minutes at 37° C., collagen hydrogels containing PDOTS/MDOTS were hydrated with media with indicated treatments. MDOTS were treated with IgG isotype control (10 μg/mL, clone 2A3) or rat-α-mouse anti-PD-1 (10 μg/ml, clone RMP1-14, BioXCell). […]
Mouse lung broncho alveolar lavage (BAL) was performed by intracheal injection of 2 ml of sterile PBS followed by collection by aspiration. Cytokines were measured using 19-plex mouse magnetic Luminex kit (R&D systems), Mouse Cytokine 23-plex Assay (Bio-Rad) or Human Cytokine 40-plex Assay (Bio-Rad) and measured on Bio-Plex 200 system (Bio-Rad). […] Fold changes relative to the control were calculated and plotted as log 2FC. Lower and upper limits of quantitation (LLOQ/ULOQ) were derived from standard curves for cytokines above or below detection. […]

[3] = system: tumor infiltrating immune cells; assay: FACS analysis of lung tumor immune infiltrates, KP GEMM; assay type: in vivo, mouse
From the text: All animal studies were reviewed and approved by the Institutional Animal Care and Use Committee (IACUC) at the Dana-Farber Cancer Institute. The genetically engineered mouse model (GEMM) harboring a conditional activating mutation of endogenous Kras (Kras^LSL-G12D/+) crossed with p53 conditional knockout Trp53^fl/fl has been previously described (36). CRE recombinase was induced through intranasal inhalation of […] adeno-Cre (University of Iowa adenoviral core).
For drug treatment studies in GEMM models, mice were evaluated by MRI imaging to quantify lung tumor burden before and after drug treatment. Mice were treated with either vehicle, or 100 mg/kg trilaciclib or 100 mg/kg palbociclib daily by oral gavage.
Mice were sacrificed, and lungs were perfused using sterile PBS through heart perfusion from the left ventricle after BAL fluid collection. The whole lung was minced into small pieces and digested in collagenase D (Sigma) and Dnase I (Sigma) in Hank's Balanced Salt Solution (HBSS) at 37° C. for 30 min. […] Live cells were determined by LIVE/DEAD® fixable aqua dead cell stain kit (Molecular Probes). The cell pellets were re-suspended in PBS with 2% FBS for Fluorescence-activated cell sorting (FACS) analysis. […] Cells were imaged on BD LSRFortessa (BD Biosciences) and analyzed using FlowJo software (Tree Star).

CN1CCN(c2ccc(Nc3ncc4cc5n(c4n3)C3(CCCCC3)CNC5=O)nc2)CC1 [trilaciclib]
IL-2 secretion [1]: enhanced IL-2 secretion
levels of Th1 cytokines (CXCL9, CXCL10, IFNγ, IL-16, CXCL16) [2]: increased levels of Th1 cytokines
infiltration of CD4+ T cells and, to a lesser degree, CD8+ cells into lung tumors ([3]; KP mice, 100 mg/kg daily for 7 days): increased infiltration
levels of PD-1 and CTLA-4 in CD4+ and CD8+ T cells ([3]; after treatment, to different extents): reduced
